Test results reported in BindingDB's records for PubMed 32707525 (n/a, 2020).
Square brackets hold non-standard residues; d marks the D form. Peptide text beside a SMILES is read from it. Mpa = O=C(O)CCS

What was measured:
CDK9/cyclin T1 = CDK9/cyclin T1 (Homo sapiens, UniProt O60563+P50750); test: Inhibition of CDK9/cyclin T1 (unknown origin) assessed as inhibition constant
[1] = molecular target: Cyclin-dependent kinase 2/cyclin E1 (Homo sapiens, UniProt P24864+P24941); test: Inhibition of CDK2/cyclin E1 (unknown origin) incubated for 60 mins in presence of ATP by ADP-Glo luminescent Kinase Assay
CDK2/Cyclin A2 = CDK2/Cyclin A2 (Homo sapiens, UniProt P20248+P24941); test: Inhibition of CDK2/cyclin A2 (unknown origin) using histone as substrate in presence of ATP by luminescent ADP detection assay

Sequence of CDK9/cyclin T1 (O60563 whole entry, looked up): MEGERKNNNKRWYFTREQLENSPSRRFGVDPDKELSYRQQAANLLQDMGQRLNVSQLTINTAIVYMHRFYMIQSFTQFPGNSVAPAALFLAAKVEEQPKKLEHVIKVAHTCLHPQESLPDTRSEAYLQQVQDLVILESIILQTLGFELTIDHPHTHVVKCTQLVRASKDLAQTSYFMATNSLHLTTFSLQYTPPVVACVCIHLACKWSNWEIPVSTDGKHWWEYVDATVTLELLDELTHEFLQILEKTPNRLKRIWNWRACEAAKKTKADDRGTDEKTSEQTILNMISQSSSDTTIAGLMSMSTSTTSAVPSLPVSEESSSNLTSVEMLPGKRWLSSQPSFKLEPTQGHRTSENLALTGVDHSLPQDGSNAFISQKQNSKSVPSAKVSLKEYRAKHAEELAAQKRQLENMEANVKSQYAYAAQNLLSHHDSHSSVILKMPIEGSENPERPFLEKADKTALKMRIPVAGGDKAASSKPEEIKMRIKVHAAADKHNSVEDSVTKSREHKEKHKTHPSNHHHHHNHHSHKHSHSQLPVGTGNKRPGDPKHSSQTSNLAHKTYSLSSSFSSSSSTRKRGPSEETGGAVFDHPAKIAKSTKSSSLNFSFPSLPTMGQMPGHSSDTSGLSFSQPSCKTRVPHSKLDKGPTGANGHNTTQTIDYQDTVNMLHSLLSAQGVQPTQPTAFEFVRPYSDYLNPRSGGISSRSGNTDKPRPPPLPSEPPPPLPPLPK
Sequence of CDK9/cyclin T1 (P50750 whole entry, looked up): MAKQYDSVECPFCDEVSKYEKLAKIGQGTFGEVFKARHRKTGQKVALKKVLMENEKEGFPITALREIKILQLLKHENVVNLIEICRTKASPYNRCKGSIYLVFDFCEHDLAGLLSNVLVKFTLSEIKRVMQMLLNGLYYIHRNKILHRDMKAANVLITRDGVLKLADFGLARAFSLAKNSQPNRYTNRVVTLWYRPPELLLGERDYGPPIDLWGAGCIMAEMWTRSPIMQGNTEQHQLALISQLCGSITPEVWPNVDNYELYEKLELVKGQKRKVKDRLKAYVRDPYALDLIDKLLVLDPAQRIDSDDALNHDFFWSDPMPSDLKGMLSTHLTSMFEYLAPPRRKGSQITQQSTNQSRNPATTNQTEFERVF

| SMILES | Ki (CDK9/cyclin T1) [nM] | IC50 (CDK2/Cyclin A2) [nM] | other results |
| --- | --- | --- | --- |
| CC(C)C[C@H](NC(=O)[C@@H](NC(=O)c1ccccc1OCc1ccccc1)C(C)C)C(=O)N[C@@H](CO)C(=O)O |  |  | IC50 [1]: 0.216 nM |
| CCCCC/N=C(/N)N/N=C/c1c[nH]c2ccc(OCC=C(C)C)cc12 |  | < 20 |  |
| CCOc1ccc(C[C@@H](NC(=O)CC23CC4CC(CC(C4)C2)C3)C(=O)N[C@@H](Cc2ccccc2)C(=O)N[C@H](C(=O)N[C@@H](CC(N)=O)C(=O)N[C@@H](CCCCN)C(=O)N2CCC[C@@H]2C(=O)N[C@@H](CCCN=C(N)N)C(=O)N[C@@H](CCCN=C(N)N)C(N)=O)C(C)C)cc1 |  | < 20 |  |
| CCCCC/N=C(/N)N/N=C/c1c[nH]c2ccc(OC(C)C)cc12 |  | < 20 |  |
| CC(C)[C@H](NC(=O)[C@H](Cc1ccccc1)NC(=O)[C@@H](Cc1ccc(O)cc1)NC(=O)CC12CC3CC(CC(C3)C1)C2)C(=O)N[C@@H](CC(N)=O)C(=O)N[C@@H](CCCN=C(N)N)C(=O)N1CCC[C@@H]1C(=O)N[C@@H](CCCN=C(N)N)C(=O)N[C@@H](CCCN=C(N)N)C(N)=O |  | < 20 |  |
| CCCCCNC(=N)N/N=C/c1c[nH]c2ccc(O)cc12 |  | < 20 |  |
| CC(C)C[C@H](NC(=O)[C@@H](NC(=O)c1ccccc1O)C(C)C)C(=O)N[C@@H](CO)C(=O)O |  |  | IC50 [1]: 0.216 nM |

Now from value to compound, other results behind:

| Ki (CDK9/cyclin T1) [nM] | IC50 (CDK2/Cyclin A2) [nM] | SMILES | other results |
| --- | --- | --- | --- |
| 3.3 |  | CC(C)C[C@H](NC(=O)[C@@H](NC(=O)c1ccc(OCc2ccccc2)cc1)C(C)C)C(=O)N[C@@H](CO)C(=O)O |  |
| 3.3 |  | CC(C)C[C@H](NC(=O)[C@@H](NC(=O)c1cccc(OCc2ccccc2)c1)C(C)C)C(=O)N[C@@H](CO)C(=O)O |  |
| 3.3 |  | CC(C)C[C@H](NC(=O)[C@@H](NC(=O)CCS)C(C)C)C(=O)N[C@@H](CO)C(=O)O ([Mpa]VLS-OH) |  |
